{"source": "paper PMC4947679", "about": "“Quantitative In Vitro and In Vivo Evaluation of Intestinal and Blood-Brain Barrier Transport Kinetics of the Plant N-Alkylamide Pellitorine” (BioMed Research International, 2016)", "key": {"[1]": {"experiment": "In vitro metabolic stability", "format": "in vitro ADME", "details": "pH 7.4; one hour, 37°C; mouse serum, brain homogenate and liver homogenate", "protocol": "The in vitro metabolic stability of pellitorine was evaluated in mouse brain and liver homogenates and mouse serum according to previously described protocols. Using the Pierce Modified Lowry Protein Assay method (Thermo Scientific), the protein content of each tissue homogenate was determined to prepare a stock solution containing a 0.6 mg/mL protein concentration in Krebs-Henseleit buffer (pH 7.4). […] After 0, 5, 7.5, 15, 60, and 120 min, aliquots of 100 μL were taken and transferred into 0.5 mL tubes (LoBind Eppendorf) containing 100 μL of 1% (V/V) TFA in water. Next, the samples were heated at 95°C for 5 min and subsequently cooled for 30 min in ice. Thereafter, the samples were centrifuged (20 000 ×g for 30 min at 5°C) and 25 μL of the clear supernatant was injected and analysed using a HPLC-UV/MS method of 46 min which was previously described. The HPLC-MS analysis was done on a HPLC system which consisted of a Spectra System SN4000 interface, a Spectra System SCM1000 degasser, a Spectra System P1000XR pump, a Spectra System AS3000 autosampler, and a Finnigan LCQ Classic ion trap mass spectrometer in positive ion mode (all from Thermo, San José, CA, USA) equipped with Waters 2487 Dual Absorbance detector and Xcalibur 2.0 software (Thermo) for data acquisition. Control solutions were also prepared but without pellitorine. […]"}, "[2]": {"experiment": "Blood-to-brain transport, multiple time regression (MTR) analysis in mice", "protocol": "Seven-to-ten-week-old female, Institute for Cancer Research, Caesarean Derived-1 (ICR-CD-1) mice (Harlan Laboratories, Venray, Netherlands) weighing 29–32 g were used for the BBB transport experiments. The experiments were performed according to the Ethical Committee principles of laboratory animal welfare as approved by Ghent University (Faculty of Veterinary Medicine, number EC2014/128).\nAn in vivo multiple time regression (MTR) analysis was performed in order to determine whether pellitorine could enter the brain. A dose solution of 1.8 mg/mL pure pellitorine dissolved in 6.9% EtOH, 2.5% dimethylacetamide, and 0.5% tween 80 (all w/w) diluted in lactated Ringer's solution containing 1% BSA was prepared. After anesthetizing the mice intraperitoneally with a 40% (w/V) urethane solution (3 g/kg), the jugular internalis vein and carotid artery were isolated and 20 μL of the pellitorine dose solution was injected into the jugular vein. After 1, 3, 5, 10, 12.5, and 15 min after injection (with start and end in duplicate), blood was collected from the carotid artery. Immediately thereafter, the mice were decapitated and the brains were isolated. […] The serum concentrations of pellitorine were plotted against the time (expressed in min). The curve was fitted using a first-order kinetic, two-compartment model: C(t) = C 1 × e ^−α×t + C 2 × e ^−β×t, in which C is the concentration of pellitorine in serum at time t, α and β are hybrid constants, dependent on the rate constants k e (elimination rate constant), k 1,2 (rate constant between central and peripheral tissue compartment), k 2,1 (rate constant between peripheral tissue and central compartment), C 1 is the concentration obtained after extrapolation of the distribution phase α to the y-axis, and C 2 is the concentration obtained after extrapolation of the elimination phase β to the y-axis. The ratio of the pellitorine brain and serum concentration (μL/g) was plotted versus the exposure time (θ), which is a derived time variable of the Gjedde-Patlak plot, to determine the BBB influx kinetics of pellitorine.\nThe exposure time is computed as θ = ∫0 ^T((C s(t) · dt)/C s(T)) and is defined as the integral of the concentration of pellitorine in serum from start (t = 0 min) to time T, divided by the concentration of pellitorine in serum at time T. The integral of the concentration of pellitorine in serum from zero to time T is the area under the curve until time T.\nThe brain uptake of pellitorine was fitted using a biphasic model, as elaborated by Wong et al.: (4) CbrainT/CsTK·θ+Vg·1−e^−θ·K1−K/Vg+V0≅K=0Vg·1−e^−θ·K1/Vg+V0 in which C brain(T) is the concentration of pellitorine in the brain at time T (ng/g), C s(T) the concentration of pellitorine in serum at time T (ng/μL), K the net clearance (μL/(g·min)), V g the tissue brain distribution volume (μL/g), K 1 the unidirectional clearance from pellitorine from blood to brain (i.e., the unidirectional brain transfer coefficient, also referred to as influx rate) (μL/(g·min)), and V 0 the vascular brain distribution volume (μL/g)."}, "[3]": {"design": "method as in PMID 24055064", "details": "cited from earlier work"}, "[4]": {"experiment": "Brain-to-blood transport after intracerebroventricular injection in mice", "format": "in vivo, ICR-CD-1 mice", "protocol": "To evaluate the efflux of pellitorine out of the brain into the blood, a previously described in vivo method was used. Briefly, the ICR-CD-1 mice were anesthetized with 40% (w/V) urethane solution (3 g/kg). Then, the skin of the skull was removed and a hole was made into the lateral ventricle using a 22 G needle marked with tape at 2 mm at the following coordinates: 1 mm lateral and 0.34 mm posterior to the bregma. Using a syringe pump (KDS100, KR analytical, Cheshire, UK), 1 μL of the 1.8 mg/mL pellitorine dose solution as used for the blood-to-brain influx experiment was injected intracerebroventriculary (ICV) at a speed of 360 μL/h for 10 s. […] Just before decapitation, blood was collected from the abdominal aorta and serum was obtained by centrifuging the blood at 10 000 ×g during 15 min at 21°C. Thereafter, brains were collected. The natural logarithm of the pellitorine concentration in brain (ng/g) was plotted versus time. The efflux rate constant k out (min^−1) is obtained from the negative value of the slope of the linear regression, applying first-order kinetics. From k out, the efflux brain half-life (t 1/2,brain) (min) is calculated as follows: t 1/2,brain = ln(2)/k out."}, "[5]": {"system": "fatty acid uptake", "design": "method as in PMID 25422952", "details": "in vitro; cited from earlier work"}, "[6]": {"details": "female, ICR-CD-1, mouse, serum, iv, 36 μg/mouse"}, "[7]": {"details": "mice, intravenous, two-compartment model"}}}
{"compound": "CCCCC/C=C/C=C/C(=O)NCC(C)C", "note": "[pellitorine, deca-2E,4E-dienoic acid isobutylamide]", "values": [{"measurement": "recovery at 1 h, 0.025 mg/mL", "setting": "[1]", "value": "91 to 105", "unit": "%"}, {"measurement": "Kp", "setting": "[2]; female, ICR-CD-1, mouse, brain (relative to serum), iv, 36 μg/mouse", "value": 0.792}, {"measurement": "half-life", "setting": "[2]; [6]", "value": 4.48, "unit": "min"}, {"measurement": "k el", "setting": "[2]; [6]", "value": 0.0025, "unit": "s⁻¹"}, {"measurement": "unidirectional influx rate K 1", "setting": "[2]; mice, injection into jugular vein, MTR", "value": 153, "unit": "µL/g/min"}, {"measurement": "tissue brain distribution volume (V g)", "setting": "[2]; mice, intravenous, biphasic model", "value": 792, "unit": "µL/g"}, {"measurement": "C 1 (serum, extrapolation of distribution phase)", "setting": "[2]; [7]", "value": 7.02, "unit": "µg/mL"}, {"measurement": "C 2 (serum, extrapolation of elimination phase)", "setting": "[2]; [7]", "value": 0.44, "unit": "µg/mL"}, {"measurement": "distribution rate constant α", "setting": "[2]; mouse serum, intravenous, two-compartment model", "value": 1.56, "unit": "min⁻¹"}, {"measurement": "toxicity during the experiment", "setting": "[2]; mouse, in vivo, iv", "value": "no toxicity was observed"}, {"measurement": "log P", "setting": "[3]", "value": 3.65}, {"measurement": "efflux transfer constant k out", "setting": "[4]", "value": 0.05, "unit": "min⁻¹"}, {"measurement": "half-life", "setting": "[4]; female, ICR-CD-1, mouse, icv or intrathecal, 1.8 μg/mouse, read-out: efflux brain half-life t 1/2,brain", "value": 13.8, "unit": "min"}, {"measurement": "fatty acid uptake", "setting": "[5]", "value": "reduces fatty acid uptake"}]}
